Assay results published in patent publication US20040219186A1, “Expandable gastric retention device” (priority 2001, published 2004).
Values after ≈ are worked out from the molar mass of the structure shown. Read-outs that look alike come from different tables or passages of the source.

Experiments:
[1] = in vivo; cited from earlier work
Strep. pneumococci = details: cited from earlier work
[2] = Hydrochlorothiazide 50 mg bio-study, IR versus GRD, urinary drug excretion, urine output and side effects, fasting subjects; format: in vivo; details: both sexes, human, oral, HCTZ 50 mg, read-out: Elimination half-life (t1/2) (converted)
Experimental: Two formulations for hydrochlorothiazide (an immediate release formulation (IR) and a gastric retention device (GRD)) containing sustained release formulations (SR) were administered in the bio-study (bioavailability study). A commercial tablet containing 50 mg of HCTZ was used as an IR control, and spray-coated beads equivalent to 50 mg of HCTZ were formulated for SR in the lab. The process of SR formulation is described above. Bio-study was performed to evaluate the bioavailability as well as pharmacodynamics of HCTZ from a GRD compared to those from an IR.
Monitoring concentrations of hydrochlorothiazide in the urine of healthy adult volunteers allowed comparison of the relative bioavailability of hydrochlorothiazide from the GRD formulation and from a conventional tablet. Participation involved at least two days for each treatment with at least 72-hours washout period between doses. An IR was given once and the GRD was repeated twice to test the reproducibility of the new dosage form, GRD. A 50 mg dose of was chosen for the study because it was in the range of the recommended dose from the PDR (Physician's Desk References) and it produced concentrations high enough to make HPLC analysis efficient. Six subjects participated in the study, 4 healthy males and 2 healthy females. […] The volume of urine collected was measured in order to calculate total amount of drug recovered. […]

SMILES | half-life [1] | MIC (Strep. pneumococci) | half-life [2]
CC1(C)S[C@@H]2[C@H](NC(=O)[C@H](N)c3ccc(O)cc3)C(=O)N2[C@H]1C(=O)O [Amoxicillin] | about 1 hour | 0.02 µg/mL (≈ 0.0547 µM) | –
NS(=O)(=O)c1cc2c(cc1Cl)NCNS2(=O)=O [hydrochlorothiazide] | – | – | ~7 h
